One assay deals with endothelin receptors. Briefly: Inhibition of endothelin binding to human placenta membranes. Particulars: 125I-endothelin 20 pM, 20° C. for 2 hours or 4° C. for 24 hours, read-out: IC50 (concentration required to inhibit 50% of the specific binding of 125I-endothelin). How it is done:
I: Inhibition of endothelin binding to human placenta membranes (see. Life Sci 44:1429 (1989))
Human placenta is homogenized in 5 mM Tris buffer, pH 7.4, which contains 1 mM MgCl2 and 250 mM sucrose. The homogenizate is centrifuged at 4° C. and 3000 g for 15 minutes, the supernatant containing the plasma membrane fraction is centrifuged with 72000 g for 30 minutes and the precipitate is washed with 75 mM Tris buffer, pH 7.4, which contains 25 mM MgCl2. Thereafter, precipitate obtained from, in each case, 10 g of original tissue is suspended in 1 ml of 75 mM Tris buffer, pH 7.4, containing 25 mM MgCl2 and 250 mM sucrose, and freeze-dried at -20° C. in 1 ml aliquots.
For the binding assay, the freeze-dried membrane preparations are thawed and, after centrifugation at 20° C. and 25000 g for 10 minutes, re-suspended in assay buffer (50 mM Tris buffer, pH 7.4, containing 25 mM MnCl2, 1 mM EDTA and 0.5% of bovine serum albumin). […] of this membrane suspension containing […] of protein are incubated with […] of ^125 I-endothelin (specific activity 2200 Ci/mMol) in assay buffer (25000 cpm, final concentration 20 pM) and […] of assay buffer containing varying concentrations of test compound. The incubation is carried out at 20° C. for 2 hours or at 4° C. for 24 hours. The separation of free and membrane-bound radioligands is carried out by filtration over a glass fibre filter.
The inhibitory activity of compounds of formula I determined in this test procedure is given in Table 1 as the IC50, that is, as the concentration […] which is required to inhibit 50% of the specific binding of ^125 I-endothelin.

The next assay relates to rats. Briefly: Inhibitory activity on vasoconstriction in vivo in rats (renal ischaemia, renal perfusion by Doppler). The arrangement: species or system rat. Conditions: 45 minutes renal ischaemia; compound given 10 minutes before, 5 mg/kg i.a. or 10 mg/kg i.v.; control tests 43±4% reduction vs preischaemic value. The procedure:
III. The inhibitory activity of the compounds of formula I on vasoconstriction can be observed in vivo in rats in the test procedure described hereinafter:
Rats were anaesthetized with Na thiobutabarbital (100 mg/kg i.p.). A catheter for measuring the systemic arterial blood pressure was placed through the femoral artery and a catheter was placed in the vena cava via the femoral vein for injection of the test compounds. A Doppler sonde was placed around the left renal artery and attached to a Doppler measuring apparatus. A renal ischaemia was produced by pinching off the left renal artery at its point of exit for 45 minutes. 10 minutes prior to the induction of the ischaemia the test compounds were administered intraarterially (i.a.) in dosages of 5 mg/kg or intravenously (i.v.) in dosages of 10 mg/kg. In control tests, the renal perfusion was reduced by 43±4% compared to the preischaemic value.

Assay [1] deals with isolated rat aorta rings (endothelin-induced contractions). Briefly: Inhibition of endothelin-induced contractions in isolated rat aorta rings. In kind it is cell-based, rat (adult Wistar-Kyoto). Conditions: in the absence of test compounds; read-out: EC50 of endothelin (concentration required for a half-maximum contraction). How it is done:
II. Inhibition of endothelin-induced contractions in isolated rat aorta rings
Rings with a length of 5 mm were cut out from the thorax aorta of adult Wistar-Kyoto rats. The endothelium was removed by lightly rubbing the internal surface. Each ring was immersed at 37° C. in 10 ml of Krebs-Henseleit solution in an isolated bath while gassing with 95% O2 and 5% CO2. The isometric stretching of the rings was measured. The rings were stretched to a pretension of 3 g. After incubation for 10 minutes with the test compound or vehicle, cumulative dosages of endothelin-1 were added. The activity of the test compound was determined by calculating the dosage ratios, that is, the shift to the right (shift to higher values) of the EC50 of endothelin induced by […] of test compound, with EC50 denoting the endothelin concentration required for a half-maximum contraction. […] The EC50 of endothelin in the absence of test compounds is 0.3 nM.

Turning to `COc1ccccc1Oc1c(NS(=O)(=O)c2ccc(C(C)C)cc2)ncnc1OCCO` [Example 2, N-[6-(hydroxyethoxy)-5-(o-methoxyphenoxy)-4-pyrimidinyl]-p-isopropylbenzenesulfonamide], the IC50 on endothelin receptors was 100 nM.

As for `CC(C)(C)c1ccc(S(=O)(=O)Nc2ncnc(OCCO)c2Oc2ccc3c(c2)OCO3)cc1` [Example 27, N-[5-(1,3-benzodioxol-5-yloxy)-6-(2-hydroxyethoxy)-4-pyrimidinyl]-p-tert-butylbenzenesulfonamide], the IC50 on endothelin receptors amounted to 99 nM.

As to `COc1ccccc1Oc1c(NS(=O)(=O)c2ccc(C(C)C)cc2)nc(C(F)(F)F)nc1OCCO` [Example 25], on endothelin receptors, the IC50 was found to be 50 nM.

As to `COc1cccc(Oc2c(NS(=O)(=O)c3ccc(C(C)(C)C)cc3)ncnc2OCCO)c1` [Example 6, p-t-butyl-N-[6-(2-hydroxyethoxy)-5-(m-methoxyphenoxy)-4-pyrimidinyl]benzenesulphonamide], the IC50 at endothelin receptors worked out at 200 nM. Further, the “% Decrease in renal perfusion” value in the assay on rats is 11.7 ± 4.7%.

In the case of “endothelin: endothelin-1, agonist added in cumulative dosages to contract rat aorta rings”, the EC50 in assay [1] was determined as 0.3 nM.

Turning to `COc1ccccc1Oc1c(NS(=O)(=O)c2ccc(C(C)C)cc2)nc(C)nc1OCCO` [Example 24, N-[6-(2-hydroxyethoxy)-5-(o-methoxyphenoxy)-2-methyl-4-pyrimidinyl]-p-isopropylbenzenesulfonamide], the IC50 on endothelin receptors turned out to be 73 nM.

On to `COc1ccccc1Oc1c(NS(=O)(=O)c2ccc(C(C)(C)C)cc2)ncnc1OCCO` [Example 1, p-t-butyl-N-[6-(2-hydroxyethoxy)-5-(o-methoxyphenoxy)-4-pyrimidinyl]benzenesulfonamide], for which the IC50 on endothelin receptors amounted to 115 nM. Besides, the “% Decrease in renal perfusion” value in the assay with rats is recorded as 13.4 ± 5.2%.

With `COc1ccccc1Oc1c(NS(=O)(=O)c2ccc(C(C)C)cc2)nc(-c2ccccc2)nc1OCCO` [Example 12, N-[6-(2-hydroxyethoxy)-5-(o-methoxyphenoxy)-2-phenyl-4-pyrimidinyl]-p-isopropylbenzenesulfonamide], the IC50 on endothelin receptors is 125 nM.
